# Where “and” joins values, the source holds several entries; their conditions need not be identical. Identical values can stand only once. Like-named read-outs stand apart in the source and are kept apart here. Where a SMILES comes first, the peptide text is derived from it.
# Key:
# [1] = Stability in mouse plasma at 37° C.; details: mouse, plasma
# Procedure: For each compound, the stock solution (100 μM in water) was diluted in plasma to a final incubation concentration of 5 μM. The incubation at 37° C. was stopped respectively at to and 4 h by adding one volume of ice cold acetonitrile containing 0.1% trifluoroacetic acid. The sample was vortexed for 1 min and then centrifuged at 4° C. before LC-MS injection of the supernatant. Analyses were performed on a Kinetex RP-C18 column (2.6 μm, 100 Å, 50×4.6 mm) using a linear gradient (solvent B in solvent A, solvent A: water/0.05% TFA; solvent B: acetonitrile; flow rate of 2 mL·min^−1: detection at 358 nm). The percentage of remaining test compound relative to t0 was measured by monitoring the peak area of the chromatogram.
# [2] = system: water-deprived or euhydrated mice; assay: Plasma AVP after i.c.v. injection (RIA); assay type: in vivo, mouse; details: for maximal decrease in AVP release: water-deprived mice
# Procedure: Animals were killed 1 min after the injection, and trunk blood (0.5-1 ml) was collected in chilled tubes containing 50 μl of 0.3 M EDTA pH 7.4. […] RIA kit (Peninsula Laboratories International Inc, San Carlo, USA).
# [3] = target: T1, rat apelin receptor-EGFP (Rattus norvegicus, UniProt Q9JHG3); assay: ERK1/2 phosphorylation (Alphascreen); assay type: cell-based; details: Table 7; read-out: ERK1/2 phosphorylation EC50
# T1 construct: expressed in transfected cells
# T1 sequence (Q9JHG3 1-377): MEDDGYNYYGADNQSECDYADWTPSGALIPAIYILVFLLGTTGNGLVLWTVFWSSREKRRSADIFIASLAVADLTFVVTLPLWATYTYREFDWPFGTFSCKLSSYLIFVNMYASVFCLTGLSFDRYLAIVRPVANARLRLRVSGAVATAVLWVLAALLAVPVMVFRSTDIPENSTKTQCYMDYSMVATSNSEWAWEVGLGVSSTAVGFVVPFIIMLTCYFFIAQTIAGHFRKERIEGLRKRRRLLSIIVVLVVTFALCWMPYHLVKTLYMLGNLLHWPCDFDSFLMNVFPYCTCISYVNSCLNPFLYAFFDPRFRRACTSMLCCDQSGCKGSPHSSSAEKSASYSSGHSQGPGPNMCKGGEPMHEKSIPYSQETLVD
# Description: ERK1/2 phosphorylation was then monitored by Alphascreen technology.
# [4] = system: rat glomerular arterioles precontracted by Angiotensin II (AngII); assay: Diameter of glomerular arterioles precontracted by angiotensin II; details: for vasorelaxant effect in the presence of L-NAME: NO synthase inhibitor
# Procedure: The left kidney of male rats was prepared for microdissection of arterioles as previously described (44). Glomerular arterioles were isolated under stereomicroscopic observation. The afferent and muscular efferent arterioles were isolated with the glomerulus and identify according their morphology and localization in the inner renal cortex as previously described by Helou et al. […] For these experiments afferent and muscular efferent arterioles were microdissected attached to the gomeruli. […] Arteriolar diameters were measured with Adobe Photoshop CS. Diameters were measured on a distance equal to about 100 μm upstream of the glomerulus and triplicate were performed for each arteriole. Calibration was made using a stage micrometer. The average diameter for each experimental condition was used for statistical analysis.
# [5] = target: T1, rat apelin receptor-EGFP; assay: Inhibition of forskolin-induced cAMP production (HTRF); assay type: cell-based
# Procedure: cAMP was quantified using the cAMP dynamic 2 assay kit (Cisbio Bioassays, Codolet, France) based on homogeneous time-resolved fluorescence (HTRF) technology. The stimulation was done in the stimulation buffer (HBSS, 5 mM Hepes, 0.1% BSA stabilizer, 1 mM IBMX, pH 7.4). Briefly, 2,000/well CHO cells stably expressing the rat apelin receptor-EGFP were added into 384-well plate and stimulated with 10^−6 M forskolin (FSK) and increasing concentrations (10^−14 to 10^−4 M) of apelins or its analogs for 30 min at room temperature. Cells were then lyzed, and cAMP levels were determined following manufacturer instructions.
# [6] = system: anaesthesized normotensive Wistar rats; assay: Arterial blood pressure after i.v. injection; assay type: in vivo, rat; details: for AUC of BP response: 100 nmol i.v., 15 minutes following injection; for Maximal decrease in BP (mmHg) / Time For maximal BP decrease / Time to return to a plateau value / plateau value reached (in brackets): Table 5; for ED50 decrease of MABP: i.v. 5-100 nmol/rat
# Procedure: The resulting solution was administered to the rats via a catheter inserted into the right femoral vein, and was immediately followed by 0.2 ml Krebs buffer alone to flush the venous catheter. An additional catheter was inserted into the right femoral artery, as previously described (47), for the monitoring of mean arterial blood pressure (MBP) as previously described (48). The arterial catheter was connected to a COBE CDX III pressure transducer (Phymep, Paris, France) linked to the Maclab system (Phymep, Paris, France). HR measurement was triggered by the blood pressure signal. BP was continuously recorded throughout the experiment. […] Mean AUC for each group were then calculated. Unpaired Student's t test was used to determine whether BP observed in response to substances administered […].) has statistically significant difference.
# [7] = system: isolated perfused rat heart; assay: Isolated perfused rat heart, cardiac contractility; details: for effect on cardiac contractility (developed pressure): K17F 0.01 to 300 nM, P92 200 and 400 nM
# Procedure: Animals were anesthetized with pentobarbital sodium (50 mg/kg intraperitoneally). Heparin (200 IU/kg) was administrated into the femoral vein. Hearts were excised quickly and arrested in ice-cold Krebs-Henseleit solution containing (mM): […] […] Temperature was continuously monitored by a thermoprobe inserted into the right atrium. Hearts beat spontaneously under the sinus rhythm. […] The maximal rate of rise of left ventricular pressure (dP/dtmax) and heart rate were derived from left ventricular pressure. After 20-minutes equilibration period, the hearts were treated by drugs added to the perfusate with an infusion pump (Harvard Apparatus Pump 11) at rate of 100 μL/min for 30 minutes.
# [8] = Half-life in the blood circulation
# [9] = target: T1, rat apelin receptor-EGFP; assay: [125I]pE13F radioligand binding on CHO membrane preparations
# Procedure: Crude membrane preparation from CHO stably expressing the wild-type rat apelin receptor-EGFP, were prepared as previously described (39). […] The reaction was stopped by adding ice-cold binding buffer and filtered through glass microfiber filters (Whatman GF/C filters). Radioactivity was counted in Wizard 1470 Wallac gamma counter (Perkin Elmer, Turku, Finland).
# [10] = target: T1, rat apelin receptor-EGFP; assay: Apelin receptor-EGFP internalization, confocal microscopy; assay type: cell-based; details: for EC50: Table 2, read-out: Internalization EC50
# Procedure: The internalization assay was performed as described previously with CHO cells stably expressing the rat apelin receptor-EGFP (43). […] Cells were then mounted in Aquapolymount (Polysciences, Warrington, Pa., USA) for confocal microscopic analysis (Sec (42) for details).
# [11] = system: water-deprived or euhydrated mice; details: i.c.v., Iturrioz 2010; cited from earlier work
# [12] = system: rat aortic rings precontracted by noradrenaline (NA); assay: Isometric tension of aortic rings precontracted by noradrenaline; details: for maximal relaxant effect / potency (pD2) of relaxation: precontraction 3×10^−6 M NA
# Procedure: The experiments were performed in rat aortic rings as previously described (39). […] The aortas were cleaned of excess connective tissue and fat and cut into rings of approximately 3-4 mm in length. Special care was taken to avoid damaging the luminal surface of the endothelium. […] One end of the aortic ring was connected to a tissue holder and the other to an isometric force transducer (EMKA Technologies, Paris, France). […] During equilibration period, the rings were washed every 30 min. Then, a first relaxation to acetylcholine (Ach, 10^−4 mol/L) was implemented to check the integrity or the absence of the endothelium in rings precontracted with NA (3×10^−8 mol/L). After rinsing with PSS to baseline tension, rings were equilibrated for 90 min. […] Each concentration of the drug was added at the maximal effect of the precedent concentration. The concentration-response curves were continuously recorded on a PC by means of IOX v 2.4 (EMKA Technologies, Paris) for further analysis (Datanalyst v2.1, EMKA Technologies, Paris).
# [13] = system: AT1 receptor; assay: Selectivity towards the AT1 receptor; assay type: binding
# [14] = 10^−6 M forskolin, read-out: IC50 inhibition of forskolin-induced cAMP production
# [15] = Table 1, read-out: cAMP production IC50
# [16] = competition with [125I]pE13F, CHO membranes, read-out: Ki for the apelin receptor (affinity)
Compound,half-life at 5 μM [1],EC50 [3],vasorelaxant effect in the presence of L-NAME [4],"IC50 [5, 14]","IC50 [5, 15]",AUC of BP response [6],decrease in MABP ([6]; 100 nmol/rat i.v.),plateau value after maximal decrease ([6]; 100 nmol/rat i.v.),time of return to plateau value ([6]; 100 nmol/rat i.v.),Maximal decrease in BP (mmHg) ([6]; 15 nmol i.v.),Time For maximal BP decrease ([6]; 15 nmol i.v.),Time to return to a plateau value ([6]; 15 nmol i.v.),plateau value reached (in brackets) ([6]; 15 nmol i.v.),ED50 decrease of MABP [6],chronotropic effect [7],effect on cardiac contractility (developed pressure) [7],"Ki [9, 16]",EC50 [10],maximal relaxant effect [12],potency (pD2) of relaxation [12],also measured
"CSCC[C@H](NC(=O)[C@@H]1CCCN1C(=O)CNC(=O)[C@H](CCCCN)NC(=O)[C@H](Cc1c[nH]cn1)NC(=O)[C@H](CO)NC(=O)[C@H](CC(C)C)NC(=O)[C@H](CCCNC(=N)N)NC(=O)[C@@H]1CCCN1C(=O)[C@H](CCCNC(=N)N)NC(=O)[C@H](CCC(N)=O)NC(=O)[C@H](CCCNC(=N)N)NC(=O)[C@H](CCCNC(=N)N)NC(=O)[C@H](Cc1ccccc1)NC(=O)[C@@H](N)CCCCN)C(=O)N1CCC[C@H]1C(=O)N[C@@H](Cc1ccccc1)C(=O)O [K17F, reference compound]",4.6 min,4080 ± 1170 pM,blocked,300 ± 200 pM,300 ± 100 pM,−13712±5271 mmHg·s,30.5 mmHg,−12 mmHg,around 22 min,−7.8 mmHg,1.2 min,4.2 min,baseline,30 nmol,No chronotropic effect,dose-dependently increased developed pressure,0.3 ± 0.1 nM,260 ± 90 pM,87±8%,8.30±0.44,"plasma AVP levels ([2]; water-deprived mice 24 h, 1 μg i.c.v., saline 425±46 pg/ml): 190 ± 27 pg/mL; maximal decrease in AVP release ([2]; 1 μg i.c.v.): −94%; IC50 ([5]; Table 3, read-out: IC50 cAMP inhibition): 90 ± 10 pM; (maximal) decrease in mean arterial blood pressure ([6]; 15 nmol/rat i.v.): 7.8 mmHg and 5.4±1 mmHg; time of maximal hypotensive response after injection ([6]; 15 nmol/rat i.v.): 1.2 min; half-life [8]: 0.667 min; Ki ([9]; Table 7, additional experiments vs Table 2, read-out: Binding affinity Ki): 0.06 ± 0.01 nM; Ki ([9]; [125I]pE13F binding I (nM), Table 2): 0.26 ± 0.12 nM; ED50 decrease in plasma AVP [11]: 56 pmol; vasorelaxing effect at maximal concentration ([12]; 100 μM): 93±3%"
"CCCC[C@H](NC(=O)[C@@H]1CCCN1C(=O)[C@@H](C)NC(=O)[C@H](CCCCN)NC(=O)C(C)(C)NC(=O)[C@H](CO)NC(=O)[C@@H](CC(C)C)NC(=O)[C@H](CCCNC(=N)N)NC(=O)[C@@H]1CCCN1C(=O)[C@H](CCCNC(=N)N)NC(=O)[C@@H](CCC(N)=O)NC(=O)[C@H](CCCNC(=N)N)NC(=O)[C@@H](CCCNC(=N)N)NC(=O)[C@H](Cc1ccccc1)NC(=O)[C@H](CCCCN)NC(C)=O)C(=O)N1CCC[C@H]1C(=O)N[C@@H](Cc1ccc(Br)cc1)C(=O)O [P92, N-Acetyl-Lys-Phe-DArg-Arg-DGln-Arg-Pro-Arg-DLeu-Ser-Aib-Lys-DAla-Pro-Nle-Pro-(4Br)Phe-OH] (HELM PEPTIDE1{[ac].K.F.[dR].R.[dQ].R.P.R.[dL].S.[Aib].K.[dA].P.[Nle].P.[O=C(O)[C@H](Cc1ccc(Br)cc1)N[*:1]]}$$$$V2.0)",24 min,3420 ± 2410 pM,blocked,200 ± 60 pM,620 ± 770 pM,−34303±4003 mmHg·s,55.4 mmHg,−20 mmHg,around 35 min,−20.8 mmHg,1.6 min,10.8 min,−12 mmHg,29.5 nmol,No chronotropic effect,increase cardiac contractility with an amplitude similar to K17F,0.21 nM and 0.2 nM and 0.09 nM,380 ± 110 pM,100±1%,7.68±0.57,"effect on plasma AVP levels in euhydrated mice ([2]; euhydrated mice, supramaximal dose 1 μg i.c.v.): no effect on plasma AVP levels; maximal decrease in AVP release ([2]; 0.1 μg i.c.v.): −85%; arteriolar diameter after addition to Ang II-preconstricted arterioles ([4]; 500 nM, 1 nM Ang II, from 87.6±1.9% with Ang II, percentage of controls): 98.1±2.5%; agonist behaviour on inhibition of cAMP production induced by forskolin [5]: full agonist; IC50 ([5]; Table 2, read-out: cAMP production IC50): 560 ± 320 pM; selectivity towards the AT1 receptor with respect to the apelin receptor (factor) [13]: 100; duration of the hypotensive effect, fold higher than K17F ([6]; 15 nmol i.v.): 3 fold; maximal hypotensive response, fold higher than K17F ([6]; 15 nmol i.v.): 3 fold; return to baseline after injection ([6]; 15 nmol/rat i.v.): 10.8 min; plateau value after maximal decrease ([6]; 10 or 15 nmol i.v.): −25 mmHg; time of return to plateau value ([6]; 10 or 15 nmol i.v.): around 33 min; IC50 ([9]; Table 1): 210 ± 130 pM; agonist behaviour towards apelin receptor internalization [10]: full agonist"

# Source: patent US20210206817A1, “Metabolically Stable Apelin Analogs in the Treatment of Disease Mediated by the Apelin Receptor” (priority 2014, published 2021)
